These results are taken from patent US20100239562A1, “Kv CHANNELS IN NEURODEGENERATION AND NEUROPROTECTION” (priority 2006, published 2010).

Where a SMILES comes first, the peptide text is derived from it. The star is where a group is joined. Cbz = O=C(OCc1ccccc1)*; CH2F = FC*

The target in data set [1] is Kv1.3 channel (voltage-gated potassium channel) on human fetal neurons / neuronal precursor cells (human). The data set is described as follows: cell-based or functional assay.
The test system of data set [2] is Human fetal neuronal cultures. The data set is described as follows: CYTOQUANT blue cell viability, GB-treated neuronal cultures with K channel blockers. It counts as cell-based. The following applies: GB 4 nM; CYTOQUANT blue staining, plate reader. The protocol: (§1) FIG. 8A-8B Protection against Granzyme B neurotoxicity by Kv1.3 inhibitors. Human fetal neuronal cultures were treated with GB (4 nM) in the presence or absence of various K channel blockers. (FIG. 8A) Cell viability was determined by staining with CYTOQUANT™ blue and the staining was quantitated by a plate reader. […] (FIG. 8B) Cell viability was determined by staining with trypan blue and the % of cells staining were counted which represent dead cells. A minimum of 500 cells was counted in each well and each treatment was done in triplicate.

A further data set has as its system human fetal neurons. The data set is described as follows: Trypan blue uptake neurotoxicity assay in GrB-treated neuronal cultures. It counts as cell-based. The protocol:
as §1
Human fetal neurons were cultured as previously described (35). Briefly, human fetal brain specimens of 12-17 weeks gestation were obtained in accordance with NIH guidelines. The tissues were then triturated after removing the meninges. Cells were then cultured in T75 flasks in opti-MEM with 5% FBS, 0.5% N2 supplement and 1% antibiotics. Neurons were collected by carefully shaking the flask at least 1 month later. Cells were then seeded at 1×10^5/ml in 96 well plates for 1 week before treatment. These cultures contain 70-80% neurons, <5% microglia and the remaining cells are astrocytes as determined by immunostaining for microtubule associated antigen (MAP-2), CD68 and glial fibrillary acidic protein (GFAP) respectively.
For trypan blue uptake, neuronal cells were seeded at 1×10^5/ml and incubated for 1 week in 96-well plates before treatment. […] The cells were then stained with trypan blue for 5 min, washed with phosphate buffered saline, pH7.4 (PBS) and fixed with 4% paraformaldehyde. Trypan blue positive and negative cells were counted in three pre-determined fields. Approximately 200 cells were counted in each well. Each experiment was done in triplicate wells and mean and SEM were calculated from at least three independent experiments.

For data set [3], the system named is Neuronal precursor cells (NPC). The data set is described as follows: Caspase-3 activation in GrB-treated NPC cultures (Western-blot). The class given is cell-based. The following applies: for effect on GB-induced caspase-3 activation: GrB 4 nM 24 hours, pretreatment PTX 100 ng/ml, ROCK-I 10 nM or MgTX 10 nM.
Data set [4] concerns Neuronal precursor cells (NPC). The data set is described as follows: Neuronal differentiation of NPC (βIII-tubulin / GFAP immunostaining). The class given is cell-based. The following applies: MgTX 10 nM for 7 days in differentiating media. The procedure:
FIG. 11. Kv1.3 specific blocker enhanced neuronal differentiation in NPC. NPC cultures were treated with (FIGS. 11D-11F) or without (FIGS. 11A-11C) Kv1.3 specific blocker MgTX (10 nM) for 7 days in differentiating media. The cells were then fixed in 4% paraformaldehyde and immunostained with mAb against neuron specific βIII-tubulin (FIGS. 11A, 11D) and polyclonal Ab against astrocyte specific GFAP (FIGS. 11B, 11E), followed by fluorescence-conjugated second Abs. The cells were observed and images were taken under confocal microscopy. […] FIGS. 11C and 11F show the merged images.

In data set [5] the test system is Kv1.3. The data set is described as follows: Kv1.3 immunostaining in GrB-treated NPC. The class given is cell-based. The following applies: GrB 4 nM, 24 hours. The procedure:
FIG. 9A-9H. […] NPC cultures on cover slips were treated with GrB (4 nM; FIGS. 9B, 9D, 9F, and 9H) for 24 hours or controls without GrB (FIGS. 9A, 9C, 9E, and 9G). The cells were then fixed in 4% paraformaldehyde and immunostained with mAb against nestin (FIGS. 9A-9B) and polyclonal Ab against Kv1.3, followed by fluorescence-conjugated secondary Abs (FIGS. 9C-9D). Nuclei were stained with Hoechst 33342 (Calbiochem, 10 μM; FIGS. 9E-9F). The cells were imaged by confocal microscopy. As shown, more than 98% of the cells were positive for nestin and also moderately stained for Kv1.3 in the control cultures.

Data set [6] relates to Kv1.3. Kind of data set: Kv1.3 immunostaining in GB-treated neurons. The class given is cell-based, human. The following applies: GB 4 nM, 16 hours. The protocol:
FIG. 7A-7H. Expression of Kv1.3 on neurons and toxicity by Granzyme B. Human fetal neuronal cultures were treated with GB (4 nM; FIGS. 7E-7H) or control with no GB (FIGS. 7A-7D) and immunostained with antisera to beta-tubulin (red; FIGS. 7A and 7E) Kv1.3 (green; FIGS. 7C and 7G) and Hoechst (blue; FIGS. 7B and 7F), 16 hours following treatment. […] FIGS. 7D and 7H show merged images with immunostaining with both antisera and Hoechst.
Expression of voltage gated channel, Kv1.3, in neurons. We discovered that that similar to T cells small basal levels of Kv1.3 channel were expressed on neurons. […] Similar increases in Kv1.3 immunostaining in neurons were also noted upon treatment with supernatants from activated T cells (FIG. 7A-7H).

For data set [7], the system named is Human fetal neuronal cultures. The data set is described as follows: Cyclic AMP assay in neuronal cultures. The class given is cell-based. The following applies: GrB 1 nM, 0-30 min. The protocol:
Human fetal neuronal cultures were seeded at 5×10^5/ml in 12 well plates for 1 week before treatment. Cultures were then treated with GrB (1 nM) in Locke's buffer for 0-30 min. After removing the media the cells were treated with 100 μl of 0.1 M HCl for 10 min to achieve cell lysis. The lysate was centrifuged at 600 g for 10 min and the supernatant was used directly for the cyclic AMP assay. Cyclic AMP competitive ELISA kit (ENDOGEN, Rockford, Ill.) was used according to manufacturer's directions.

The test system of another data set is Human astrocyte cultures. The class given is cell-based. The conditions noted are these: recombinant GrB 1-4 nM. The protocol:
Enriched human fetal astroglia were cultured as previously described. Briefly, human fetal brain specimens of 12-17 weeks gestation were triturated after removal of the meninges. Cells were then cultured in T75 flasks in DMEM with 10% FBS and 1% antibiotics for at least 1 month. After shaking at 180 rpm for 1 h, cells were separated with trypsin/EDTA. Cells were then seeded at 1×10^5/ml in 96 well plates for 1 week before treatment. >95% of these cells were immunostained for GFAP.
(§2) Recombinant GrB induces toxicity in neurons but not in astroglia. […] We next determined the effect of perform on GrB induced neurotoxicity. We used threshold toxic concentrations of perform (50 ng/ml) for these experiments. […] We next determined if the GrB mediated toxicity could also occur in astrocytes. Human astrocyte cultures were similarly treated with recombinant GrB (dose-1-4 nM) and monitored for neurotoxicity.

Data set [8] deals with Human fetal neuron cultures. Kind of data set: GrB neurotoxicity by caspase-3 activation and nuclear fragmentation. The following applies: recombinant GrB 0.5 to 4 nM. The class given is cell-based. The protocol: Human fetal neuron cultures on cover slips were treated with GrB (1 nM) for 24 h. Caspase-3 and βIII tubulin expression in neurons was determined by immunocytochemistry. Briefly, cells were fixed with 4% paraformaldehyde for 5 min, and then blocked with 3% FBS in PBS for 20 min. Polyclonal caspase-3 antiserum (1:500) and monoclonal anti-BIII tubulin (1 μg/ml; Promega, Madison. WI) antibody were then applied and cover slips incubated overnight at 4° C. After washing with PBS, the cover slips were incubated with secondary antibodies (1:200 Donkey anti-rabbit IgG Alexa Fluor 594 and anti-mouse IgG Alexa Fluor 488, Molecular Probes, Eugene, Oreg.) for 2 h. Hochest 33258 (10 μM) was added at the last half an hour to stain the nucleus. The cells were imaged by confocal microscopy.
as §2

The subject of another data set is Primary neurons. The data set is described as follows: Calcium imaging (Fura-2/AM) of cytosolic calcium in neurons. It counts as cell-based. The protocol:
FIG. 4-4B. disrupts calcium homeostasis in neurons. Primary neurons were exposed to GrB for 30 min before imaging of intracellular calcium using Fura-2AM. (FIG. 4A). Resting levels of cytosolic calcium were increased by treatment with 1.0-100 nM GrB. (FIG. 4B). SDF-1α (10 μM) evoked increases of cytosolic calcium were increased by pre-treatment of neurons with 10 nM GrB. * P<0.001.
Cytosolic calcium ([Ca^2+]c) was determined using the ratiometric calcium probe Fura-2/AM using methods similar to those previously described (36). Cells were incubated in 2 μM Fura-2/AM for 20 min at 37° C. in media and washed with Locke's Buffer (154 mM NaCl, 3.6 mM NaHCO3, 5.6 mM KCl, 1 mM MgCl2, 5 mM HEPES, 2.3 mM CaCl2, 10 mM glucose; pH 7.4) to remove extracellular Fura-2/AM. Fura-2 loaded cells were placed into a open bath chamber and maintained at 37° C. (Series 20 open perfusion chamber and TC-344B temperature controller; Warner Instruments. Hamden, Conn.). Buffer flowed over the cells at the rate of ˜2 ml/min using a VC-6 perfusion control system with a multi-input manifold that minimized dead space, allowing for a rapid change between buffer and buffer containing drug. Cells were alternatively excited at 340 and 380 nm by a monochrometer and emission was recorded at 510 with software from Intracellular Imaging (Intracellular Imaging Inc., Cincinnati, Ohio.) […] ratios were converted to nM [Ca^2+]c using curve fitting software and calcium reference standards (Molecular Probes).

[9] abbreviates: agent 10 μM added 1 h prior to GrB, trypan blue uptake 48 h later.

In turn, “margatoxin (MgTX), Kv1.3 specific blocker (from UniProt P40755 1-39) (peptide)” had a protection of human fetal neurons against GB (4 nM) toxicity, trypan blue staining (% dead cells) in data set [1] of 1 to 10 nM.

With dendrotoxin, the “protection against GB neurotoxicity (cell viability, optical density)” value in data set [2] is listed as “failed to protect against GB neurotoxicity”.

In the case of MnTMPyP, in the data set with human fetal neurons (setting [9]), the “blocking of GrB-induced neurotoxicity” value is recorded as “significantly blocked the neurotoxicity”.

Consider `O=C[C@@H](O)[C@@H](O)[C@H](O)[C@H](O)COP(=O)(O)O` [Mannose-6-phosphate, D-mannose 6-phosphate], for which the “inhibition of GrB-induced neurotoxicity” value in the data set with human fetal neurons (pretreated with 10 mM mannose-6-phosphate, then GrB 1 nM, trypan blue uptake, 48 h) is recorded as “unable to inhibit GrB-induced neurotoxicity”.

For “rTrtyustoxin: non-specific voltage gated K channel blocker (VFINAKCRGSPECLPKCKEAIGKAAGKCMNGKCKCYP)”, in [2], the “protection against GB neurotoxicity (cell viability, optical density)” value is listed as “protective”.

With “margatoxin (TIINVKCTSPKQCLPPCKAQFGQSAGAKCMNGKCKCYPH) [Margotoxin]”, the “effect on GB-induced caspase-3 activation” value in data set [3] is reported as “attenuated GB-induced caspase-3 activation”. Besides, in data set [4], the “neuronal differentiation (βIII-tubulin positive cells and processes)” value was “increased the number of βIII-tubulin positive cells and processes per cell”. Further, in the data set with human fetal neurons (GB 4 nM, trypan blue), the “concentration with significant protection against GB toxicity” value was 1 to 10 nM and the “protection against GB toxicity (% trypan blue stained cells)” value is “protected against GB toxicity in a dose responsive manner”.

For the molecule “GrB: 32-kDa serine protease of lymphocyte granules; recombinant GrB used”, the “Kv1.3 expression in NPC” value with Kv1.3 [5] is recorded as “significant increase in Kv1.3 expression”. Also, the “Kv1.3 channel expression in neurons” value with Kv1.3 [6] is on record as “increased expression of Kv1.3 channel in a subpopulation of cells”. For the same molecule, the cAMP levels result in data set [7] is listed as “significant decreases at 5 min”. Moreover, the “caspase-3 activation in NPC” value in data set [3] (GrB 4 nM, 24 hours) is on record as “induced caspase-3 activation”. In the data set with Human astrocyte cultures, the “cell death in astrocyte cultures” value was “No evidence of cell death”. The “minimum concentration needed to cause significant neurotoxicity” value in data set [8] is recorded as 1 nM. For the same molecule, the “SDF-1α-evoked ER calcium release, peak increase” value in the data set with Primary neurons (cultures pre-treated with GrB (10 nM), SDF-1α) came to 1000 nM. The “resting [Ca2+]c” value in the data set with Primary neurons (higher dose of GrB, within 30 min) was “four fold”. For the same molecule, the “resting concentration of [Ca2+]c” value with Primary neurons (lowest concentration tested, 1 nM GrB, within 30 min) is “doubled”.

With `COC(=O)C[C@H](NC(=O)[C@H](C)NC(=O)[C@@H](NC(=O)OCc1ccccc1)C(C)C)C(=O)CF` [Z-VAD-fmk] (Cbz-Val-Ala-Asp(OMe)-CH2F), the “blocking of GrB-induced neurotoxicity” value in the data set with human fetal neurons (setting [9]) is recorded as “significantly (P<0.05) blocked”.

Take `Cc1c(C)c2c(c(C)c1O)CCC(C)(C(=O)O)O2` (stereo not drawn) [trolox]: the “blocking of GrB-induced neurotoxicity” value with human fetal neurons (setting [9]) is listed as “blocked GrB neurotoxicity”.

Consider pertussis toxin, for which the “effect on GB-induced caspase-3 activation” value in [3] is reported as “attenuated GB-induced caspase-3 activation”. The “blocking of GrB-induced neurotoxicity” value in the data set on human fetal neurons (10 μM pertussis toxin, added 1 h prior to GrB, trypan blue uptake, 48 h) is recorded as “blocked”.

For `CCC(C)(C)C(=O)C(=O)N1CCC[C@H]1C(=O)OCCCc1cccnc1` [GPI-1046, 3-(3-pyridyl)-1-propyl (2S)-1-(3,3-dimethyl-1,2-dioxopentyl)-2-pyrrollidinecarboxylate], the “blocking of GrB-induced neurotoxicity” value with human fetal neurons (setting [9]) is recorded as “blocked GrB neurotoxicity”.

B1: perforin: human perforin, membrane disrupting protein of lymphocyte granules (protein, UniProt P14222 22-555, looked up)
Perforin-1: PCHTAARSECKRSHKFVPGAWLAGEGVDVTSLRRSGSFPVDTQRFLRPDGTCTLCENALQEGTLQRLPLALTNWRAQGSGCQRHVTRAKVSSTEAVARDAARSIRNDWKVGLDVTPKPTSNVHVSVAGSHSQAANFAAQKTHQDQYSFSTDTVECRFYSFHVVHTPPLHPDFKRALGDLPHHFNASTQPAYLRLISNYGTHFIRAVELGGRISALTALRTCELALEGLTDNEVEDCLTVEAQVNIGIHGSISAEAKACEEKKKKHKMTASFHQTYRERHSEVVGGHHTSINDLLFGIQAGPEQYSAWVNSLPGSPGLVDYTLEPLHVLLDSQDPRREALRRALSQYLTDRARWRDCSRPCPPGRQKSPRDPCQCVCHGSAVTTQDCCPRQRGLAQLEVTFIQAWGLWGDWFTATDAYVKLFFGGQELRTSTVWDNNNPIWSVRLDFGDVLLATGGPLRLQVWDQDSGRDDDLLGTCDQAPKSGSHEVRCNLNHGHLKFRYHARCLPHLGGGTCLDYVPQMLLGEPPGNRSGAVW
Take B1: the “enhancement of GrB neurotoxicity” value in the data set with human fetal neurons (perforin 50 ng/ml combined with GrB 1 nM) is reported as “enhancement was not statistically significant”.
